Source: patent publication US11274097B2, “2-(het)aryl-substituted condensed bicyclic heterocycle derivatives as pest control agents” (BAYER CROPSCIENCE AKTIENGESELLSCHAFT, priority 2014, dated 2022)
Values joined by “and” are separate entries in the source; they are usually repeats but may differ in a detail not shown here. Equal values may be shown once.

Legend:
Tetranychus urticae = Tetranychus urticae spray test, OP-resistant (TETRUR); assay type: in vivo; settings: bean leaf discs, after 6 days
Description: Tetranychus urticae—Spray Test, OP-Resistant (TETRUR)
(§1) Solvent: 78.0 parts by weight of acetone • • 1.5 parts by weight of dimethylformamide
(§2) Emulsifier: alkylaryl polyglycol ether
(§3) To produce an appropriate active ingredient formulation, 1 part by weight of active ingredient is dissolved using the stated parts by weight of solvent and made up with water containing an emulsifier concentration of 1000 ppm until the desired concentration is attained. To produce further test concentrations, the preparation is diluted with emulsifier-containing water.
Discs of bean leaves (Phaseolus vulgaris) infested by all stages of the greenhouse red spider mite (Tetranychus urticae) are sprayed with an active ingredient formulation of the desired concentration.
After 6 days, the efficacy in % is determined. 100% means that all the spider mites have been killed; 0% means that none of the spider mites have been killed.

Phaedon cochleariae = Phaedon cochleariae spray test (PHAECO); assay type: in vivo; settings: larvae, after 7 days
Description: Phaedon cochleariae—Spray Test (PHAECO)
as §1, §2, §3
Discs of Chinese cabbage leaves (Brassica pekinensis) are sprayed with an active ingredient formulation of the desired concentration and, after drying, populated with larvae of the mustard beetle (Phaedon cochleariae).
After 7 days, the efficacy in % is determined. 100% means that all the beetle larvae have been killed; 0% means that no beetle larvae have been killed.

Myzus persicae [1] = test: Myzus persicae spray test (MYZUPE), Chinese cabbage leaf discs; assay type: in vivo; settings: application rate 500 g/ha, after 6 days
Description: (§4) Myzus persicae—Spray Test (MYZUPE)
Solvent: 78 parts by weight of acetone • • 1.5 parts by weight of dimethylformamide
(§5) Emulsifier: alkylaryl poly glycol ether
as §3
Discs of Chinese cabbage leaves (Brassica pekinensis) infested by all stages of the green peach aphid (Myzus persicae) are sprayed with an active ingredient formulation of the desired concentration.
After 6 days, the efficacy in % is determined. 100% means that all the aphids have been killed; 0% means that none of the aphids have been killed.

Spodoptera frugiperda = Spodoptera frugiperda spray test (SPODFR); assay type: in vivo; settings: application rate 500 g/ha; maize leaf discs; after 7 days
Description: Spodoptera frugiperda—Spray Test (SPODFR)
as §1, §2, §3
Leaf discs of maize (Zea mays) are sprayed with an active ingredient formulation of the desired concentration and, after drying, populated with caterpillars of the armyworm (Spodoptera frugiperda).
After 7 days, the efficacy in % is determined. 100% means that all the caterpillars have been killed; 0% means that no caterpillars have been killed.

[2] = log P by HPLC on a reversed-phase column (C 18), EEC Directive 79/831 Annex V.A8; assay type: physicochemical; settings: 55° C.; for LOGP_HCOOH: acidic range, pH 2.7, 0.1% aqueous formic acid/acetonitrile; for LOGP_NEUTRAL: neutral range, pH 7.8, 0.001 molar aqueous ammonium hydrogencarbonate/acetonitrile
Description: The log P values are measured according to EEC Directive 79/831 Annex V.A8 by HPLC (high-performance liquid chromatography) on a reversed-phase column (C 18). Temperature: 55° C. The LC-MS determination in the acidic range is effected at pH 2.7 using 0.1% aqueous formic acid and acetonitrile (contains 0.1% formic acid) as eluents, linear gradient from 10% acetonitrile to 95% acetonitrile. Called log P (HCOOH) in the table. LC-MS determination in the neutral range is effected at pH 7.8 with 0.001 molar aqueous ammonium hydrogencarbonate solution and acetonitrile as eluents; linear gradient from 10% acetonitrile to 95% acetonitrile. Called log P (neutral) in the table. Calibration is effected with unbranched alkan-2-ones (having 3 to 16 carbon atoms) with known log P values (log P values determined on the basis of the retention times by linear interpolation between two successive alkanone s).

Meloidogyne incognita = Meloidogyne incognita test; assay type: in vivo; settings: application rate 20 ppm; lettuce; after 14 days
Description: Meloidogyne incognita Test Solvent: 125.0 parts by weight of acetone To produce a suitable active ingredient formulation, 1 part by weight of active ingredient is mixed with the stated amount of solvent and the concentrate is diluted with water to the desired concentration. Vessels are filled with sand, active ingredient solution, an egg/larvae suspension of the southern root-knot nematode (Meloidogyne incognita) and lettuce seeds. The lettuce seeds germinate and the plants develop. The galls develop on the roots. After 14 days, the nematicidal efficacy in % is determined by the formation of galls. 100% means that no galls were found; 0% means that the number of galls on the treated plants corresponds to the untreated control.

Aphis gossypii [3] = test: Aphis gossypii contact test (APHIGO c); assay type: in vivo; settings: 2.4 g/ha, 7 dat
Description: Aphis gossypii—Contact Test (APHIGO c)
(§6) Solvent: 7 parts by weight of dimethylformamide
as §2
(§7) To produce an appropriate active ingredient formulation, 1 part by weight of active ingredient is dissolved using the stated parts by weight of solvent and made up with water containing an emulsifier concentration of 1000 ppm until the desired concentration is attained. To produce further test concentrations, the preparation is diluted with emulsifier-containing water. In the event that addition of ammonium salts or/and penetrants (rapeseed oil methyl ester) is required, these are each pipetted in a concentration of 1000 ppm after the finished formulation solution has been diluted.
One-leaved cotton plants (Gossypium hirsutum) heavily infested by the cotton aphid (Aphis gossypii) are treated by spraying the underside of the leaf with the active ingredient formulation in the desired concentration.
(§8) After the desired time, the kill in % is determined. 100% means that all the aphids have been killed and 0% means that none of the aphids have been killed.

Nilaparvata lugens = Nilaparvata lugens test (NILALU); assay type: in vivo; settings: 4 ppm
Description: Nilaparvata lugens Test (NILALU)
as §6, §2, §7
Rice plants (Oryza sativa, var. Balilla) are treated by spraying with the active ingredient formulation in the desired concentration and then populated with L3 larvae of the brown planthopper (Nilaparvata lugens).
After the desired time, the feeding damage in % is determined. 100% means that no feeding damage is found; 0% means that the feeding damage to the treated plant corresponds to that of the untreated control.

Aphis gossypii [4] = test: Aphis gossypii translaminar test (APHIGO t); assay type: in vivo; settings: 2.4 g/ha, 7 dat
Description: Aphis gossypii—Translaminar Test (APHIGO t)
as §6, §2, §7
One-leaved cotton plants (Gossypium hirsutum) heavily infested by the cotton aphid (Aphis gossypii) are treated by spraying the top side of the leaf with the active ingredient formulation in the desired concentration.
as §8

Myzus persicae [5] = test: Myzus persicae translaminar test (MYZUPE t); assay type: in vivo; settings: 14 dat
Description: Myzus persicae—Translaminar Test (MYZUPE t)
as §6, §5, §7
One-leaved bell pepper plants (Capsicum annuum) heavily infested by the green peach aphid (Myzus persicae) are treated by spraying the top side of the leaf with the active ingredient formulation in the desired concentration.
as §8

Myzus persicae [6] = test: Myzus persicae contact test (MYZUPE c); assay type: in vivo; settings: 2.4 g/ha, 14 dat
Description: Myzus persicae—Contact Test (MYZUPE c)
as §6, §5, §7
One-leaved bell pepper plants (Capsicum annuum) heavily infested by the green peach aphid (Myzus persicae) are treated by spraying the underside of the leaf with the active ingredient formulation in the desired concentration.
as §8

Nephotettix cincticeps = Nephotettix cincticeps test (NEPHCI); assay type: in vivo; settings: 0.16 ppm
Description: Nephotettix cincticeps Test (NEPHCI)
as §6, §2, §7
Rice plants (Oryza sativa, var. Balilla) are treated by spraying with the active ingredient formulation in the desired concentration and then populated with larvae of the green rice leafhopper (Nephotettix cincticeps).
After the desired time, the kill in % is determined. 100% means that all leafhoppers have been killed; 0% means that none of the leafhoppers have been killed.

Myzus persicae [7] = test: Myzus persicae spray test (MYZUPE), bell pepper plants; assay type: in vivo; settings: application rate 100 ppm, after 6 days
Description: as §4, §6, §5
To produce an appropriate active ingredient formulation, 1 part by weight of active ingredient is dissolved using the stated parts by weight of solvent and made up with water containing an emulsifier concentration of 1000 ppm until the desired concentration is attained. To produce further test concentrations, the preparation is diluted with emulsifier-containing water. If the addition of ammonium salts or/and penetrants is required, these are each added in a concentration of 1000 ppm to the formulation solution.
Bell pepper plants (Capsicum annuum) heavily infested by the green peach aphid (Myzus persicae) are treated by spraying with the active ingredient formulation in the desired concentration.
After 6 days, the kill in % is determined. 100% means that all the aphids have been killed; 0% means that no aphids have been killed.

Lucilia cuprina = Lucilia cuprina test (LUCICU); assay type: in vivo; settings: application rate 100 ppm; L1 larvae; after 2 days
Description: Lucilia cuprina Test (LUCICU) Solvent: dimethyl sulphoxide To produce an appropriate active ingredient formulation, 10 mg of active ingredient are mixed with 0.5 ml of dimethyl sulphoxide, and the concentrate is diluted with water to the desired concentration. About 20 L1 larvae of the Australian sheep blowfly (Lucilia cuprina) are transferred into a test vessel containing minced horsemeat and the active ingredient preparation of the desired concentration. After 2 days, the kill in % is determined. 100% means that all the larvae have been killed; 0% means that none of the larvae have been killed.

Ctenocephalides felis = Ctenocephalides felis in vitro contact test; assay type: in vivo; settings: application rate 5 μg/cm^2; adult cat fleas; after 48 h
Description: Ctenocephalides felis—In Vitro Contact Test
For the coating of the test tubes, 9 mg of active ingredient are first dissolved in 1 ml of acetone p.a. and then diluted to the desired concentration with acetone p.a. 250 μl of the solution are distributed homogeneously on the inner walls and base of a 25 ml test tube by turning and rocking on an orbital shaker (rocking rotation at 30 rpm for 2 h). With 900 ppm active ingredient solution and internal surface 44.7 cm^2, given homogeneous distribution, an area-based dose of 5 μg/cm^2 is achieved.
After the solvent has evaporated off, the tubes are populated with 5-10 adult cat fleas (Ctenocephalides felis), sealed with a perforated plastic lid and incubated in a horizontal position at room temperature and ambient humidity. After 48 h, efficacy is determined. To this end, the test tubes are stood upright and the fleas are knocked to the base of the tube. Fleas which remain motionless at the base or move in an uncoordinated manner are considered to be dead or moribund.
100% efficacy means that all the fleas were dead or moribund. 0% efficacy means that no fleas were harmed.

Structure (SMILES)	LOGP_HCOOH [2]	LOGP_NEUTRAL [2]	efficacy (Tetranychus urticae; application rate 500 g/ha) [%]	efficacy (Phaedon cochleariae; application rate 500 g/ha) [%]	efficacy (Myzus persicae [1])	efficacy (Spodoptera frugiperda) [%]	also measured
CCSc1cc(Cl)ccc1-c1nc2cc(C(F)(F)F)ncc2n1C [Example I-42]	3.46	3.39	90	100	90%	100	
CCS(=O)(=O)c1cc(C(F)(F)F)cnc1-c1nc2cc(C(F)(F)F)cnc2n1C [Ex. 5 known from WO2013018928]							% efficacy (Aphis gossypii [3]): 15%; % efficacy (Nilaparvata lugens; 21 dat): 35%; % efficacy (Nilaparvata lugens; 28 dat): 20%; % efficacy (Aphis gossypii [4]): 0%; % efficacy (Myzus persicae [5]; 2.4 g/ha): 0%; % efficacy (Myzus persicae [5]; 12 g/ha): 0%; % efficacy (Myzus persicae [6]): 50%; % efficacy (Nephotettix cincticeps; 14 dat): 0%; % efficacy (Nephotettix cincticeps; 21 dat): 0%; % efficacy (Nephotettix cincticeps; 34 dat): 0%
Cn1c(-c2ccc(Cl)cc2S(C)(=O)=O)nc2cc(C(F)(F)F)ncc21 [Example I-11]	2.39	2.34					efficacy (Phaedon cochleariae; application rate 100 g/ha): 100%; efficacy (kill) (Myzus persicae [7]): 97%
CCS(=O)(=O)c1ccccc1-c1nc2cc(C(F)(F)F)ncc2n1C [Example I-18]	2.13	2.11		100	100% and 90%		efficacy (kill) (Lucilia cuprina): 100%; efficacy (Ctenocephalides felis): 100%
CCSc1ccc(Cl)cc1-c1nc2cc(C(F)(F)F)ncc2n1C [Example I-19]	3.43	3.38	90	100	90%	83	

More lines, main results first:

LOGP_HCOOH [2]	LOGP_NEUTRAL [2]	Structure (SMILES)	efficacy (Tetranychus urticae; application rate 500 g/ha) [%]	efficacy (Phaedon cochleariae; application rate 500 g/ha) [%]	efficacy (Myzus persicae [1])	efficacy (Spodoptera frugiperda) [%]	also measured
2.50	2.46	CCS(=O)(=O)c1cccnc1-c1nc2cc(C(F)(F)C(F)(F)F)ncc2n1C [Example I-68]	100	100	90%	100	nematicidal efficacy (formation of galls) (Meloidogyne incognita): 100%
2.70	2.64	CCS(=O)(=O)c1c(C(F)(F)F)ccnc1-c1nc2cc(C(F)(F)F)ncc2n1C [Example I-48]		100	100%	83	efficacy (Tetranychus urticae; application rate 100 g/ha): 90%
